What was measured:
[1] = target: T1, Bromodomain-containing protein 4 (Homo sapiens, UniProt O60885); experiment: Inhibition of BRD4 in poly(I:C)-stimulated human SAECs TLR3-inducible CIG5 gene expression at 10 uM pre-incubated for 24 hrs before poly(I:C) stimulation for 4 hrs by qRT-PCR analysis relative to control
[2] = target: T1, Bromodomain-containing protein 4; experiment: Inhibition of BRD4 in poly(I:C)-stimulated human SAECs TLR3-inducible IL-6 gene expression at 10 uM pre-incubated for 24 hrs before poly(I:C) stimulation for 4 hrs by qRT-PCR analysis relative to control
[3] = target: T1, Bromodomain-containing protein 4; experiment: Inhibition of BRD4 in poly(I:C)-stimulated human SAECs TLR3-inducible CIG5 gene expression pre-incubated for 24 hrs before poly(I:C) stimulation for 4 hrs by qRT-PCR analysis
[4] = target: T1, Bromodomain-containing protein 4; experiment: Inhibition of BRD4 in poly(I:C)-stimulated human SAECs TLR3-inducible IL-6 gene expression pre-incubated for 24 hrs before poly(I:C) stimulation for 4 hrs by qRT-PCR analysis
[5] = target: T1, Bromodomain-containing protein 4; experiment: Binding affinity to recombinant BRD4 BD2 (unknown origin) incubated for 1 hr by TR-FRET assay
[6] = target: Bromodomain-containing protein 2 (Homo sapiens, UniProt P25440); experiment: Binding affinity to recombinant BRD2 BD2 (unknown origin) incubated for 1 hr by TR-FRET assay
Bromodomain-containing protein 2, sequence (P25440 whole entry): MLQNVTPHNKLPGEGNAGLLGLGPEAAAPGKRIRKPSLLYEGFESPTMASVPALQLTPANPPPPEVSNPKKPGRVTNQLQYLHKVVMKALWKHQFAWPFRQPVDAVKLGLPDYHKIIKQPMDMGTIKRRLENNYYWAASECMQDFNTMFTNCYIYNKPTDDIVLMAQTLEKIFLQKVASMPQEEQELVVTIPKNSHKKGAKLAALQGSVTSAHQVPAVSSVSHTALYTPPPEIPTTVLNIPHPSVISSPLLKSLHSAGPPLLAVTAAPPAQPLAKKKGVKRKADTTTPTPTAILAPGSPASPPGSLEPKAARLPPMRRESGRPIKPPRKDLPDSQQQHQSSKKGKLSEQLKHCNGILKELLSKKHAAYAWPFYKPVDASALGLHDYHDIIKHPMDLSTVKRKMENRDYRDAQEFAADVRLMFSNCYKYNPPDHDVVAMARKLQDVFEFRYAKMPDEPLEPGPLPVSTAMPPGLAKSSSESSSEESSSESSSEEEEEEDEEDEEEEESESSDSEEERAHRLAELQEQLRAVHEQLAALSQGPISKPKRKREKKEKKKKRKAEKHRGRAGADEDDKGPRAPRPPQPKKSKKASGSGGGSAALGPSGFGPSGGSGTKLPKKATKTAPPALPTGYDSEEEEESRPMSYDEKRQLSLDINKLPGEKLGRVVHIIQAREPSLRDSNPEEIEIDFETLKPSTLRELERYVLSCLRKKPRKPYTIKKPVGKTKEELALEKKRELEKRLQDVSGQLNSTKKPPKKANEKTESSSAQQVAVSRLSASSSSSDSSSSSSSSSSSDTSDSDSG

SMILES	inhibition [1] [%]	inhibition [2] [%]	other results
COc1cc(OC)c2c(=O)[nH]c(-c3cc(C)c(OC[C@@H](O)CN4CCN(C)CC4)c(C)c3)nc2c1	83	80	IC50 [3]: 2.6 µM; IC50 [4]: 3.5 µM
COc1cc(OC)c2c(=O)cc(-c3cc(C)c(OC[C@H](O)CN4CCOCC4)c(C)c3)oc2c1	42	82	–
Cc1cc(-c2nc3cccc(F)c3c(=O)[nH]2)cc(C)c1O	33	62	–
COc1cc(OC)c2c(=O)[nH]c(-c3ccc(O)cc3Cl)nc2c1	42	66	–
COc1cc(OC)c2c(=O)[nH]c(-c3ccc(O)cc3)nc2c1	81	63	–
COc1cc(OC)c2c(=O)[nH]c(-c3cc(C)c(O)c(C)c3)nc2c1	–	75	–
Cc1cc(-c2nc3ccccc3c(=O)[nH]2)cc(C)c1O	–	81	–
O=c1[nH]c(-c2cc(F)c(O)cc2F)nc2ccccc12	2.2	59	–
C=CCOc1c(C)cc(-c2cc(=O)c3c(OC)cc(OC)cc3o2)cc1C	83	–	–
COc1cc(OC)c2c(=O)[nH]c(-c3cc(C)c(OC[C@@H]4CO4)c(C)c3)nc2c1	87	83	–
COc1cc(OC)c2c(=O)[nH]c(-c3ccc(C(F)(F)F)c(C)c3)nc2c1	–	45	–
Cc1cc(-c2nc3ccc(Br)cc3c(=O)[nH]2)cc(C)c1O	43	25	–
Cc1cc(-c2nc3ccc(F)cc3c(=O)[nH]2)cc(C)c1O	-4.5	62	–

Second part, led by results:

inhibition [1] [%]	inhibition [2] [%]	SMILES	other results
18	55	Cc1cc(-c2nc3ccccc3c(=O)n2C)cc(C)c1O	–
51	15	Cc1cc(-c2nc3cc(Br)ccc3c(=O)[nH]2)cc(C)c1O	–
71	–	Cc1cc(-c2nc3cc(-c4ccn(C)n4)ccc3c(=O)[nH]2)cc(C)c1O	–
100	100	COc1cc(OC)c2c(=O)cc(-c3cc(C)c(OC[C@@H](O)CN4CCCCC4)c(C)c3)oc2c1	IC50 [3]: 0.58 µM; IC50 [4]: 0.54 µM; IC50 [5]: 0.093 µM; IC50 [6]: 1.2 µM
–	82	COc1cc(OC)c2c(=O)cc(-c3cc(C)c(OC[C@H](O)CN(C)C)c(C)c3)oc2c1	–
–	86	Cc1cc(-c2nc3cc([N+](=O)[O-])ccc3c(=O)n2C)cc(C)c1O	–
92	99	COc1cc(OC)c2c(=O)cc(-c3cc(C)c(OC[C@H](O)CN4CCCC4)c(C)c3)oc2c1	IC50 [3]: 1.48 µM; IC50 [4]: 0.97 µM
97	98	COc1cc(OC)c2c(=O)cc(-c3cc(C)c(OCCO)c(C)c3)oc2c1	IC50 [3]: 2.6 µM; IC50 [4]: 2.8 µM
85	90	COc1cc(OC)c2c(=O)cc(-c3cc(C)c(OC[C@@H](F)CN4CCCCC4)c(C)c3)oc2c1	–
61	59	COc1cc(-c2nc3ccccc3c(=O)[nH]2)cc(OC)c1O	–
37	53	Cc1cc(-c2nc3ccc(Cl)cc3c(=O)[nH]2)cc(C)c1O	–
84	65	COc1cc(OC)c2c(=O)[nH]c(-c3cc(C)c(OCCO)c(C)c3)nc2c1	–
45	–	COc1cc(OC)c2c(=O)[nH]c(-c3ccc(C(F)(F)F)cc3)nc2c1	–
63	88	COc1cc(OC)c2c(=O)cc(-c3cc(C)c(OC[C@H](O)CN4CCC(F)(F)CC4)c(C)c3)oc2c1	–

— ChEMBL document CHEMBL4402595, “Discovery of Orally Bioavailable Chromone Derivatives as Potent and Selective BRD4 Inhibitors: Scaffold Hopping, Optimization, and Pharmacological Evaluation” (J Med Chem, 2020)
